{
  "source": "ChEMBL document CHEMBL1201862",
  "about": "“PubChem BioAssay data set” (2004)",
  "key": {"[1]": {"molecular_target": "Protein-tyrosine kinase 2-beta (Homo sapiens, UniProt Q14289)", "sequence (Q14289 whole entry)": "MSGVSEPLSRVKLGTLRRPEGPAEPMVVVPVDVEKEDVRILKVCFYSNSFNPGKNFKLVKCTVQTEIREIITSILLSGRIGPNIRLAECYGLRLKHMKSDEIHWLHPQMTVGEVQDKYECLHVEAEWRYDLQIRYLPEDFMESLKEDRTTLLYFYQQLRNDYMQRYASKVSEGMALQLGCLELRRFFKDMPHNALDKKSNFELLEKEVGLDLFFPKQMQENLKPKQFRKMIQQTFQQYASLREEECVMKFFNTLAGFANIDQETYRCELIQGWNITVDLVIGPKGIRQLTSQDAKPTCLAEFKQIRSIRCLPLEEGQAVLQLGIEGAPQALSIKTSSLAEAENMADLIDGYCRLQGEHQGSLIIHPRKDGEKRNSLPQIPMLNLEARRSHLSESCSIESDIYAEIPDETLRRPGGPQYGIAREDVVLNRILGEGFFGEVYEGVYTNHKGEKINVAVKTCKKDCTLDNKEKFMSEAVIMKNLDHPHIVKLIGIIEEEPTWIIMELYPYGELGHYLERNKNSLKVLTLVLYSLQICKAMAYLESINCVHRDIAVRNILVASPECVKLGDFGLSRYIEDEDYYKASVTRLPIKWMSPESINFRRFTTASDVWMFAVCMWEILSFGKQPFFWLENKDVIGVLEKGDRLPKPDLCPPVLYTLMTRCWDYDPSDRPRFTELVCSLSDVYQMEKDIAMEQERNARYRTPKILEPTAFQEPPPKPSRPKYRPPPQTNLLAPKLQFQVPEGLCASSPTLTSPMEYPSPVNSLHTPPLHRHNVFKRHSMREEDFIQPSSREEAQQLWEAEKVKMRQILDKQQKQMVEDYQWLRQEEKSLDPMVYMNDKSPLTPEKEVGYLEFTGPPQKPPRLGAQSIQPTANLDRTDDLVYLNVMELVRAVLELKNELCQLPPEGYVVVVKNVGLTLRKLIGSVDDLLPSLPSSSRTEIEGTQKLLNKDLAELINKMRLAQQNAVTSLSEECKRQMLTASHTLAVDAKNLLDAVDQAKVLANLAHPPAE"}, "[2]": {"molecular_target": "Glyceraldehyde-3-phosphate dehydrogenase (Homo sapiens, UniProt P04406)", "sequence (P04406 whole entry)": "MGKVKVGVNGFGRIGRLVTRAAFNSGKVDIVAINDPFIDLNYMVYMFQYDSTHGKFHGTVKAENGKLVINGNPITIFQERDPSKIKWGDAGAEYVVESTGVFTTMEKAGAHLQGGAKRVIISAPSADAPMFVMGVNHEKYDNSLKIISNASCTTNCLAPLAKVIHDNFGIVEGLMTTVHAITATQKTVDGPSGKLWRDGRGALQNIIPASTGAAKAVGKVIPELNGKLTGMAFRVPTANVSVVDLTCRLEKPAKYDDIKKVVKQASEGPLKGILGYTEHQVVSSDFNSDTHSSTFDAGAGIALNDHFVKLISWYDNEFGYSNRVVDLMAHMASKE"}, "Bcl-2-related protein A1 [3]": {"molecular_target": "T1, Bcl-2-related protein A1 (Mus musculus, UniProt Q07440)", "T1 sequence (Q07440 whole entry)": "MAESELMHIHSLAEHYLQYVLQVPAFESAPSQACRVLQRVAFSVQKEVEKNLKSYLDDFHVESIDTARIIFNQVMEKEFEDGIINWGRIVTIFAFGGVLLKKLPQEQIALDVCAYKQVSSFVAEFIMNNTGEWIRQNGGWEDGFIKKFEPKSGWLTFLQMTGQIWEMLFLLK", "assay": "Bfl-1 binding inhibitors, SAR follow-up, biochemical, fluorescence polarization (AID 1070)"}, "Bcl-2-related protein A1 [4]": {"molecular_target": "T1, Bcl-2-related protein A1", "assay": "small-molecule antagonists of Bfl-1/BH3 interaction – biochemical, TR-FRET, mouse Bfl-1, confirmation (AID 621);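 also: TR-FRET binding of GST-Bfl-1 to FITC-labelled Bid peptide via terbium antibody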"}, "[5]": {"molecular_target": "T2, E3 ubiquitin-protein ligase XIAP (Homo sapiens, UniProt P98170)", "T2 sequence (P98170 whole entry)": "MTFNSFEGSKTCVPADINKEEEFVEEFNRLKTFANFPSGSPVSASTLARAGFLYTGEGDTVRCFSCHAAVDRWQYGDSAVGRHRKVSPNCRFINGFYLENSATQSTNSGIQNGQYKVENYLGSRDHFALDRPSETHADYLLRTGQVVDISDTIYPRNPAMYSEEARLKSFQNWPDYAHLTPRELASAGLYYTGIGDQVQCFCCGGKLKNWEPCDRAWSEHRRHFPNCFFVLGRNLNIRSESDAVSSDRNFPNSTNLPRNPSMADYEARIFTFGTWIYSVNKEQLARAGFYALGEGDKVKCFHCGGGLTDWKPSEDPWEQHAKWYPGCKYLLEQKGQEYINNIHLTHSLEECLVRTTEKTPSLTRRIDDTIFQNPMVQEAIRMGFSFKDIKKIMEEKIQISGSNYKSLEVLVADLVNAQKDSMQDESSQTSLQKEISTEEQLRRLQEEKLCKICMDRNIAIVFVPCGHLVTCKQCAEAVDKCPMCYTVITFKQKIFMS", "assay": "small molecules displacing peptide from XIAP – biochemical, IAP family, fluorescence polarization (AID 1018)", "type": "functional"}, "[6]": {"molecular_target": "T2, E3 ubiquitin-protein ligase XIAP", "assay": "Counter Screen using XIAP-Bir3 for Chemical Antagonists of Bir1/2 domains of IAP-family anti-apoptotic proteins. [Related pubchem assays (depositor defined):AID1018, AID1449, AID1514, AID1638, AID1749, AID1750, AID488957, AID488963]"}, "HT-1080": {"system": "HT-1080", "assay": "HT1080 cell viability loss – fluorescence readout (AID 620)", "type": "functional, cell-based", "details": "Homo sapiens"}, "[7]": {"molecular_target": "Luciferin 4-monooxygenase (Photinus pyralis, UniProt P08659)", "sequence (P08659 whole entry)": "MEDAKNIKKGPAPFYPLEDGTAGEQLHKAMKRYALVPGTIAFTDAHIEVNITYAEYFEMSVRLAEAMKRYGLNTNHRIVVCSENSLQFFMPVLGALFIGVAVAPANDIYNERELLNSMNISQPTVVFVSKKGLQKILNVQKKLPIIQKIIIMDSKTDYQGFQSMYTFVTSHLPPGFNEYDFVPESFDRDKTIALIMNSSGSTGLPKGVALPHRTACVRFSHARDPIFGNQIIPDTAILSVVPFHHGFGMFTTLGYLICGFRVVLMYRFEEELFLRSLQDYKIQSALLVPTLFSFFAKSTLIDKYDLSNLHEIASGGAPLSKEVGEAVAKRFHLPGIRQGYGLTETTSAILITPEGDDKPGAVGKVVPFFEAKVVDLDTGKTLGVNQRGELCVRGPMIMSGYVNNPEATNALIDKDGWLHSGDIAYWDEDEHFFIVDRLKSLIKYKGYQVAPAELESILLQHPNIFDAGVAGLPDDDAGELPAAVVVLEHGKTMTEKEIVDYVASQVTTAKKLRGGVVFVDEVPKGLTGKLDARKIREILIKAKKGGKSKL", "assay": "Counter Screen for Luciferase-based Assay Positives. [Related pubchem assays: 620, 618, 411 ]"}, "[8]": {"molecular_target": "Epstein-Barr nuclear antigen 1 (Epstein-Barr virus (strain B95-8) (HHV-4) (Human herpesvirus 4), UniProt P03211)", "sequence (P03211 whole entry)": "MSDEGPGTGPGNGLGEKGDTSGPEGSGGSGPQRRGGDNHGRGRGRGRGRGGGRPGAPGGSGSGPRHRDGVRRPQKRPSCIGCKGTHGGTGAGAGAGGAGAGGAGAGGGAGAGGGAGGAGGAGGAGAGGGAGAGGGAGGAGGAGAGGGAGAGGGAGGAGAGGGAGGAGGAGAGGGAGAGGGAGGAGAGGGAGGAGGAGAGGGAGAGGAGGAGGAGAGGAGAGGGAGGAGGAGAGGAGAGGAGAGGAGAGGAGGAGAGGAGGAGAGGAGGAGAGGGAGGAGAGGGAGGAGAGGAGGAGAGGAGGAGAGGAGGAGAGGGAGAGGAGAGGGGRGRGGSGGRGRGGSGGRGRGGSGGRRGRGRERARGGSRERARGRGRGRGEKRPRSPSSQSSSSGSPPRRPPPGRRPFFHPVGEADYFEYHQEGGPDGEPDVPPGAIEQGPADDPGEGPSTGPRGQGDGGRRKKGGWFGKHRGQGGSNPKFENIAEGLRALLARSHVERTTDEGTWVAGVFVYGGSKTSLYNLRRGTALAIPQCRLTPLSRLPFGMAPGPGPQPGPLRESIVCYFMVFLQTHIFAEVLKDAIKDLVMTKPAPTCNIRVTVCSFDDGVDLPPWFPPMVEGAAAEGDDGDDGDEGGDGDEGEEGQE", "assay": "inhibition of EBV nuclear antigen 1 DNA binding – biochemical, fluorescence polarization, 1536-well, dose response (AID 2381);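 also: fluorescence polarization of a Cy5 DNA probe bound by EBNA-1 protein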", "set-up": "species or system human gammaherpesvirus 4"}, "[9]": {"molecular_target": "Lytic switch protein BZLF1 (Epstein-Barr virus (strain B95-8) (HHV-4) (Human herpesvirus 4), UniProt P03206)", "sequence (P03206 whole entry)": "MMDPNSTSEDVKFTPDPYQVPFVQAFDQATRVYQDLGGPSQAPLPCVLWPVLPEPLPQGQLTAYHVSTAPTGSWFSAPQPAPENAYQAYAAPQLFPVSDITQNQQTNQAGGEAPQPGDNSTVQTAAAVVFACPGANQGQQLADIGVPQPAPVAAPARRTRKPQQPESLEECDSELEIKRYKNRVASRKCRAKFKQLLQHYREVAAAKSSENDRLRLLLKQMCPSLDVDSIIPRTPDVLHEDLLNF", "assay": "inhibition of BZLF1 ZTA DNA binding – biochemical, fluorescence polarization, Epstein-Barr virus, 1536-well, counter-screen for EBNA-1 inhibitor project, dose response (AID 2377);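 also: fluorescence polarization of Cy5-labelled ZRE DNA probe bound by purified Zta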", "set-up": "species or system human gammaherpesvirus 4"}, "[10]": {"molecular_target": "5-hydroxytryptamine receptor 1E (Homo sapiens, UniProt P28566)", "sequence (P28566 whole entry)": "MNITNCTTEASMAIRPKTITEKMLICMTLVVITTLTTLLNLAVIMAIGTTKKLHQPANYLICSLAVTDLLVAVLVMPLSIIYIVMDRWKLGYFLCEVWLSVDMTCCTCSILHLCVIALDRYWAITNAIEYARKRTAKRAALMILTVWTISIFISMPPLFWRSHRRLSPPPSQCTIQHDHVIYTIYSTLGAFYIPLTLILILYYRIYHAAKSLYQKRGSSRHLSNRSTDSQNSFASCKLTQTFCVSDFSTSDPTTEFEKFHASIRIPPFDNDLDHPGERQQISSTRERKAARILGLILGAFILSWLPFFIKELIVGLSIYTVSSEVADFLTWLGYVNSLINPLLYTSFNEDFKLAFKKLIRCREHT", "assay": "Counterscreen assay for S1P3 antagonists: Dose response cell-based high throughput screening assay to identify antagonists of the 5-Hydroxytryptamine Receptor Subtype 1E (5HT1E). [Related pubchem assays: 1429, 485 ]", "type": "functional"}, "[11]": {"molecular_target": "Sphingosine 1-phosphate receptor 3 (Homo sapiens, UniProt Q99500)", "sequence (Q99500 whole entry)": "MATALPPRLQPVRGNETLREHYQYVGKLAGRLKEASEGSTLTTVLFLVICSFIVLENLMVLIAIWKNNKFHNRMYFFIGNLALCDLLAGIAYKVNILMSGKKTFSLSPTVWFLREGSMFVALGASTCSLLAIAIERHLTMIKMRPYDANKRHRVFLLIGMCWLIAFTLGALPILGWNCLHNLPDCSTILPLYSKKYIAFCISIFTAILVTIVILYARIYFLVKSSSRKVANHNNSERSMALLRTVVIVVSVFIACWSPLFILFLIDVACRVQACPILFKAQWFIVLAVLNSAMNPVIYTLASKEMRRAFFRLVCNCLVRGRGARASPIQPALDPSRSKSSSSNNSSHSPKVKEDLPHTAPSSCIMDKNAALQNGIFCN", "assay": "Dose response cell-based high throughput screening assay for antagonists of the Sphingosine 1-Phosphate Receptor 3 (S1P3). [Related pubchem assays: 1429, 485 ]", "type": "functional"}, "[12]": {"molecular_target": "T3, Heat shock 70 kDa protein 1A (Homo sapiens, UniProt P0DMV8)", "T3 sequence (P0DMV8 whole entry)": "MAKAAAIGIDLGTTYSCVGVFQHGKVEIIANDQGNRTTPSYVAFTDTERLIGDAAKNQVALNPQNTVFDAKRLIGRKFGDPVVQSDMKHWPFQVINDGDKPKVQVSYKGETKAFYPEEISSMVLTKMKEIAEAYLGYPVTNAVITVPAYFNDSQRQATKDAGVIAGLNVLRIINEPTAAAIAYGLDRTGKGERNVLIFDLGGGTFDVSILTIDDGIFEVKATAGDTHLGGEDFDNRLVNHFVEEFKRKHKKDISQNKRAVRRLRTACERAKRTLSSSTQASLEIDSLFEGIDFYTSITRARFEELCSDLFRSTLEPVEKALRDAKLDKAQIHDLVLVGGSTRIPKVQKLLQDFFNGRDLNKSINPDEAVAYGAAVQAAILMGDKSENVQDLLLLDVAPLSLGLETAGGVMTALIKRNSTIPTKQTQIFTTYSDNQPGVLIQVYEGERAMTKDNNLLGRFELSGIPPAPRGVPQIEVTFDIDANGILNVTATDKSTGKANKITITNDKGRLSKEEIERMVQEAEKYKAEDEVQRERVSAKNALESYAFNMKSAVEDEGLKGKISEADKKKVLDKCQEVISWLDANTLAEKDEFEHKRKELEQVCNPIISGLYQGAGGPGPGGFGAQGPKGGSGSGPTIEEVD", "assay": "small-molecule inhibition of Hsp70 – biochemical, TR-FRET (AID 786)"}, "[13]": {"molecular_target": "T3, Heat shock 70 kDa protein 1A", "assay": "small molecules displacing fluorescent ligand from Hsp70 – biochemical, fluorescence polarization, primary screen (AID 583)"}},
  "note": "The source made the active and inactive calls.",
  "data": [
    {"molecule": "CCN(CC)S(=O)(=O)c1cc([N+](=O)[O-])ccc1NNC(=O)Nc1ccccc1", "values": [
      {"measurement": "IC50", "setting": "[1]", "result": "> 69.5 µM (not active)"}
    ]},
    {"molecule": "O=C1C(Cl)=C(Cl)C(=O)N1c1cccc(Cl)c1Cl", "values": [
      {"measurement": "IC50", "setting": "[2]", "result": "> 100 µM (not active)"},
      {"measurement": "IC50", "setting": "Bcl-2-related protein A1 [3]", "result": "0.979 µM (active)"},
      {"measurement": "IC50", "setting": "Bcl-2-related protein A1 [4]", "result": "0.5 µM (active)"}
    ]},
    {"molecule": "O=c1c2ccccc2nnn1CSc1nnc(-c2cccs2)n1Cc1ccccc1", "values": [
      {"measurement": "IC50", "setting": "[5]", "result": "> 100 µM (not active)"},
      {"measurement": "IC50", "setting": "[6]", "result": "> 100 µM (inactive)"}
    ]},
    {"molecule": "Nc1ccc2oc(-c3ccc4[nH]cnc4c3)nc2c1", "values": [
      {"measurement": "EC50", "setting": "HT-1080", "result": "> 50 µM (not active)"},
      {"measurement": "EC50", "setting": "[7]", "result": "11.2 µM (active)"}
    ]},
    {"molecule": "O=C(Nc1ccc(Oc2ccc3c(c2)C(=O)N(c2ccc(O)cc2)C3=O)cc1)c1cccs1", "values": [
      {"measurement": "IC50", "setting": "[8]", "result": "15.1 µM (not active)"},
      {"measurement": "IC50", "setting": "[9]", "result": "> 111 µM (not active)"}
    ]},
    {"molecule": "CC1CCCCN1C(=O)Cn1cc(C(=O)c2ccco2)c2ccccc21", "note": "(centres undefined)", "values": [
      {"measurement": "IC50", "setting": "[10]", "result": "> 50 µM (not active)"},
      {"measurement": "IC50", "setting": "[11]", "result": "> 50 µM (not active)"}
    ]},
    {"molecule": "Cc1c(NC(=O)Nc2ccc(Cl)cc2)c(=O)n(-c2ccccc2)n1C", "values": [
      {"measurement": "IC50", "setting": "[12]", "result": "> 100 µM (not active)"},
      {"measurement": "IC50", "setting": "[13]", "result": "> 100 µM (not active)"}
    ]}
  ]
}
